Source: patent publication US8952024B2, “Herbicidal pyrimidone derivatives” (E I du Pont de Nemours and Company, priority 2009, dated 2015)

Test system: pigweed (Amaranthus retroflexus)
Assay: Test A pre-/postemergence plant response
Type: in vivo
Settings: Preemergence, 125 g ai/ha; 0 to 100 scale, 0 = no effect, 100 = complete control
How it was run: (§1)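 Pre: directed soil spray on seeded loam/sand blend. Post: same formulation (non-phytotoxic solvent + surfactant) on 2–10 cm plants, 1–2 leaf stage. Greenhouse ~10 d; visual injury score 0–100 vs untreated.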

Compound | Plant response rating, Pigweed
COCCn1c(-c2cc(F)cc(F)c2)ncc(C(=O)C2=C(O)CCCC2=O)c1=O [Compound 119] | 100

Same assay, conditions: Preemergence, 500 g ai/ha; visual injury, 0 to 100 scale (0 no effect, 100 complete control), approx. ten days

Compound | Plant response rating, Pigweed
COCCn1c(-c2cc(F)cc(F)c2)ncc(C(=O)C2=C(O)CCCC2=O)c1=O [Compound 119] | 100

Test system: velvetleaf (Abutilon theophrasti)
Assay: Test A pre-/postemergence plant response
Type: in vivo
Settings: Postemergence, 125 g ai/ha; 0 to 100 scale where 0 is no effect and 100 is complete control
How it was run: as §1

Compound | Plant response rating, Velvetleaf
COCCn1c(-c2cc(F)cc(F)c2)ncc(C(=O)C2=C(O)CCCC2=O)c1=O [Compound 119] | 100

Same assay, conditions: Postemergence, 500 g ai/ha; 0 to 100 scale, 0 = no effect, 100 = complete control; approx. ten days

Compound | Plant response rating, Velvetleaf
COCCn1c(-c2cc(F)cc(F)c2)ncc(C(=O)C2=C(O)CCCC2=O)c1=O [Compound 119] | 100

Same assay, conditions: Preemergence, 125 g ai/ha; 0 to 100 scale, 0 = no effect, 100 = complete control

Compound | Plant response rating, Velvetleaf
COCCn1c(-c2cc(F)cc(F)c2)ncc(C(=O)C2=C(O)CCCC2=O)c1=O [Compound 119] | 90

Same assay, conditions: Preemergence, 500 g ai/ha; visual injury, 0 to 100 scale (0 no effect, 100 complete control), approx. ten days

Compound | Plant response rating, Velvetleaf
COCCn1c(-c2cc(F)cc(F)c2)ncc(C(=O)C2=C(O)CCCC2=O)c1=O [Compound 119] | 100

Test system: wheat (Triticum aestivum)
Assay: Test A pre-/postemergence plant response
Type: in vivo
Settings: Postemergence, 125 g ai/ha; 0 to 100 scale where 0 is no effect and 100 is complete control
How it was run: as §1

Compound | Plant response rating, Wheat
COCCn1c(-c2cc(F)cc(F)c2)ncc(C(=O)C2=C(O)CCCC2=O)c1=O [Compound 119] | 50

Same assay, conditions: Postemergence, 500 g ai/ha; 0 to 100 scale, 0 = no effect, 100 = complete control; approx. ten days

Compound | Plant response rating, Wheat
COCCn1c(-c2cc(F)cc(F)c2)ncc(C(=O)C2=C(O)CCCC2=O)c1=O [Compound 119] | 60

Same assay, conditions: Preemergence, 125 g ai/ha; 0 to 100 scale, 0 = no effect, 100 = complete control

Compound | Plant response rating, Wheat
COCCn1c(-c2cc(F)cc(F)c2)ncc(C(=O)C2=C(O)CCCC2=O)c1=O [Compound 119] | 20

Same assay, conditions: Preemergence, 500 g ai/ha; visual injury, 0 to 100 scale (0 no effect, 100 complete control), approx. ten days

Compound | Plant response rating, Wheat
COCCn1c(-c2cc(F)cc(F)c2)ncc(C(=O)C2=C(O)CCCC2=O)c1=O [Compound 119] | 60

Test system: winter barley (Hordeum vulgare)
Assay: Test B postemergence plant response
Type: in vivo
Settings: 31 g ai/ha, postemergence; scale 0 to 100, 0 is no effect, 100 is complete control
How it was run: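 Visual ratings from 0 (no effect) to 100 (complete control), made against controls 13–15 days after treatment, kept in a greenhouse. Compounds were applied postemergence to potted plants at the 1- to 4-leaf stage (2–18 cm).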

Compound | Plant response rating, Barley
COCCn1c(-c2cc(F)cc(F)c2)ncc(C(=O)C2=C(O)CCCC2=O)c1=O [Compound 119] | 0

Same assay, conditions: 62 g ai/ha, postemergence; 0 is no effect, 100 is complete control; 13 to 15 days

Compound | Barley plant response rating (0 to 100 scale)
COCCn1c(-c2cc(F)cc(F)c2)ncc(C(=O)C2=C(O)CCCC2=O)c1=O [Compound 119] | 0

Same assay, conditions: Postemergence, 125 g ai/ha; scale 0 to 100 (0 no effect, 100 complete control)

Compound | Plant response rating, Barley
COCCn1c(-c2cc(F)cc(F)c2)ncc(C(=O)C2=C(O)CCCC2=O)c1=O [Compound 119] | 5

Same assay, conditions: Postemergence, 250 g ai/ha; scale 0 to 100 (0 no effect, 100 complete control)

Compound | Plant response rating, Barley
COCCn1c(-c2cc(F)cc(F)c2)ncc(C(=O)C2=C(O)CCCC2=O)c1=O [Compound 119] | 5

Test system: barnyardgrass (Echinochloa crus-galli)
Assay: Test B flooded paddy test
Type: in vivo
Settings: 250 g ai/ha; flooded paddy test; visual rating on 0 to 100 scale (0 no effect, 100 complete control) after 13 to 15 days
How it was run: (§2)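 Ratings are visual, 0–100 (100 = complete control), taken versus untreated controls 13 to 15 days after treatment in the greenhouse. Compound went straight into paddy water held 3 cm above soil, applied to 2-leaf-stage plants of four species.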

Compound | Plant response rating, Flood, Barnyardgrass
COCCn1c(-c2cc(F)cc(F)c2)ncc(C(=O)C2=C(O)CCCC2=O)c1=O [Compound 119] | 50

Same assay, conditions: Flood (flooded paddy test), 62 g ai/ha; scale of 0 to 100 where 0 is no effect and 100 is complete control; 13 to 15 days

Compound | Plant response rating, Barnyardgrass
COCCn1c(-c2cc(F)cc(F)c2)ncc(C(=O)C2=C(O)CCCC2=O)c1=O [Compound 119] | 30

Test system: ducksalad (Heteranthera limosa)
Assay: Test B flooded paddy test
Type: in vivo
Settings: 250 g ai/ha; flooded paddy test; visual rating on 0 to 100 scale (0 no effect, 100 complete control) after 13 to 15 days
How it was run: as §2

Compound | Plant response rating, Flood, Ducksalad
COCCn1c(-c2cc(F)cc(F)c2)ncc(C(=O)C2=C(O)CCCC2=O)c1=O [Compound 119] | 70

Same assay, conditions: Flood (flooded paddy test), 62 g ai/ha; scale of 0 to 100 where 0 is no effect and 100 is complete control; 13 to 15 days

Compound | Plant response rating, Ducksalad
COCCn1c(-c2cc(F)cc(F)c2)ncc(C(=O)C2=C(O)CCCC2=O)c1=O [Compound 119] | 30

Test system: rice (Oryza sativa)
Assay: Test B flooded paddy test
Type: in vivo
Settings: 250 g ai/ha; flooded paddy test; visual rating on 0 to 100 scale (0 no effect, 100 complete control) after 13 to 15 days
How it was run: as §2

Compound | Plant response rating, Flood, Rice
COCCn1c(-c2cc(F)cc(F)c2)ncc(C(=O)C2=C(O)CCCC2=O)c1=O [Compound 119] | 35

Same assay, conditions: Flood (flooded paddy test), 62 g ai/ha; scale of 0 to 100 where 0 is no effect and 100 is complete control; 13 to 15 days

Compound | Plant response rating, Rice
COCCn1c(-c2cc(F)cc(F)c2)ncc(C(=O)C2=C(O)CCCC2=O)c1=O [Compound 119] | 20

Test system: umbrella sedge (Cyperus difformis)
Assay: Test B flooded paddy test
Type: in vivo
Settings: 250 g ai/ha; flooded paddy test; visual rating on 0 to 100 scale (0 no effect, 100 complete control) after 13 to 15 days
How it was run: as §2

Compound | Plant response rating, Flood, Sedge, Umbrella
COCCn1c(-c2cc(F)cc(F)c2)ncc(C(=O)C2=C(O)CCCC2=O)c1=O [Compound 119] | 75

Same assay, conditions: Flood (flooded paddy test), 62 g ai/ha; scale of 0 to 100 where 0 is no effect and 100 is complete control; 13 to 15 days

Compound | Plant response rating, Sedge, Umbrella
COCCn1c(-c2cc(F)cc(F)c2)ncc(C(=O)C2=C(O)CCCC2=O)c1=O [Compound 119] | 25
